According to ChEMBL document CHEMBL3885861, “Open TG-GATES”:

Species: Rattus norvegicus
Test: Open TG-GATES - Regimen: Single
Assay type: toxicity, organism-based, Sprague-Dawley
Design: regimen Single, gender Male, age 6 weeks
Conditions: in vivo, po, route gavage; for APTT / Bas / Eos / Fbg / Hb / Ht / Lym / MCH / MCHC / MCV / Mono / Neu / PT / Plat / RBC / Ret / WBC: tissue Blood; for KIDNEY_L / KIDNEY_R / KIDNEY_TOTAL: tissue Kidney; for LIVER: tissue Liver; for ALP / ALT / AST / CRE / DBIL / GLC / IP / K / LDH / Na / PL / RALB / TBIL / TC / TP / gamma-GTP: tissue Plasma
[1] = 0 mg/kg, 3 h, dose level Control
[2] = 0 mg/kg, 6 h, dose level Control
[3] = 0 mg/kg, 9 h, dose level Control
[4] = 0 mg/kg, 24 h, dose level Control
[5] = 100 mg/kg, 24 h, dose level Low

## Clc1ccccc1CN1CCc2sccc2C1 [TICLOPIDINE]
[1]
  TERMINAL_BW: 208.4 g
  APTT: 18.6 s
  Bas: 0%
  Eos: 1%
  Fbg: 221.2 mg/dL
  Hb: 13.2 g/dL
  Ht: 37.6%
  Lym: 73.2%
  MCH: 21.1 pg
  MCHC: 35%
  MCV: 60.3 fL
  Mono: 3%
  Neu: 21.8%
  PT: 11.9 s
  Plat: 123.5 x10_4/uL
  RBC: 623.4 x10_4/ul
  Ret: 7.9%
  WBC: 82.6 x10_2/uL
  KIDNEY_L: 0.9 g
  KIDNEY_R: 0.9 g
  KIDNEY_TOTAL: 1.9 g
  LIVER: 9.5 g
  ALP: 806 IU/L
  ALT: 37.4 IU/L
  AST: 69.2 IU/L
  CRE: 0.4 mg/dL
  DBIL: 0.07 mg/dL
  GLC: 204.6 mg/dL
  IP: 9.8 mg/dL
  K: 3.9 meq/L
  LDH: 129.2 IU/L
  Na: 141.2 meq/L
  PL: 142.4 mg/dL
  RALB: 3.3 g/dL
  TBIL: 0.1 mg/dL
  TC: 79.2 mg/dL
  TP: 5.4 g/dL
  gamma-GTP: 1.2 IU/L
[2]
  TERMINAL_BW: 208.2 g
  APTT: 18.7 s
  Bas: 0.2%
  Eos: 1%
  Fbg: 214.6 mg/dL
  Hb: 13.4 g/dL
  Ht: 38.1%
  Lym: 73%
  MCH: 21.3 pg
  MCHC: 35.2%
  MCV: 60.3 fL
  Mono: 3%
  Neu: 21.4%
  PT: 12 s
  Plat: 123.6 x10_4/uL
  RBC: 632.8 x10_4/ul
  Ret: 7.7%
  WBC: 93.2 x10_2/uL
  KIDNEY_L: 1 g
  KIDNEY_R: 0.9 g
  KIDNEY_TOTAL: 1.9 g
  LIVER: 9.1 g
  ALP: 821 IU/L
  ALT: 32.4 IU/L
  AST: 68 IU/L
  CRE: 0.4 mg/dL
  DBIL: 0.074 mg/dL
  GLC: 183.2 mg/dL
  IP: 9.3 mg/dL
  K: 3.9 meq/L
  LDH: 170.8 IU/L
  Na: 141.4 meq/L
  PL: 126.8 mg/dL
  RALB: 3.2 g/dL
  TBIL: 0.1 mg/dL
  TC: 70.8 mg/dL
  TP: 5.3 g/dL
  gamma-GTP: 1 IU/L
[3]
  TERMINAL_BW: 205.8 g
  APTT: 17.9 s
  Bas: 0%
  Eos: 1%
  Fbg: 222 mg/dL
  Hb: 13.3 g/dL
  Ht: 37.5%
  Lym: 78.2%
  MCH: 21.5 pg
  MCHC: 35.6%
  MCV: 60.5 fL
  Mono: 2%
  Neu: 17.8%
  PT: 12.3 s
  Plat: 131.6 x10_4/uL
  RBC: 620 x10_4/ul
  Ret: 7.6%
  WBC: 87.2 x10_2/uL
  KIDNEY_L: 0.9 g
  KIDNEY_R: 0.9 g
  KIDNEY_TOTAL: 1.8 g
  LIVER: 7.9 g
  ALP: 871.4 IU/L
  ALT: 33.4 IU/L
  AST: 65.6 IU/L
  CRE: 0.4 mg/dL
  DBIL: 0.072 mg/dL
  GLC: 193.8 mg/dL
  IP: 10 mg/dL
  K: 3.7 meq/L
  LDH: 128.4 IU/L
  Na: 141.8 meq/L
  PL: 130.8 mg/dL
  RALB: 3.3 g/dL
  TBIL: 0.1 mg/dL
  TC: 74 mg/dL
  TP: 5.4 g/dL
  gamma-GTP: 1 IU/L
[4]
  TERMINAL_BW: 221.4 g
  APTT: 20.8 s
  Bas: 0.8%
  Eos: 0.8%
  Fbg: 228.6 mg/dL
  Hb: 13.7 g/dL
  Ht: 38.7%
  Lym: 75%
  MCH: 21.5 pg
  MCHC: 35.4%
  MCV: 60.7 fL
  Mono: 3.6%
  Neu: 19.2%
  PT: 11.9 s
  Plat: 130.5 x10_4/uL
  RBC: 638 x10_4/ul
  Ret: 6.5%
  WBC: 110.6 x10_2/uL
  KIDNEY_L: 1 g
  KIDNEY_R: 1 g
  KIDNEY_TOTAL: 1.9 g
  LIVER: 10.1 g
  ALP: 880.2 IU/L
  ALT: 43.8 IU/L
  AST: 73.6 IU/L
  CRE: 0.4 mg/dL
  DBIL: 0.074 mg/dL
  GLC: 198.2 mg/dL
  IP: 8.5 mg/dL
  K: 3.7 meq/L
  LDH: 142.2 IU/L
  Na: 141.8 meq/L
  PL: 134.2 mg/dL
  RALB: 3.4 g/dL
  TBIL: 0.1 mg/dL
  TC: 70 mg/dL
  TP: 5.5 g/dL
  gamma-GTP: 1 IU/L
100 mg/kg, 3 h, dose level Low
  TERMINAL_BW: 210.7 g
  APTT: 19.6 s
  Bas: 0.2%
  Eos: 0.8%
  Fbg: 226.4 mg/dL
  Hb: 13.4 g/dL
  Ht: 38.3%
  Lym: 78.6%
  MCH: 21.4 pg
  MCHC: 35%
  MCV: 61.1 fL
  Mono: 2.8%
  Neu: 16.6%
  PT: 12.2 s
  Plat: 117.9 x10_4/uL
  RBC: 628 x10_4/ul
  Ret: 8.1%
  WBC: 70.6 x10_2/uL
  KIDNEY_L: 1 g
  KIDNEY_R: 1 g
  KIDNEY_TOTAL: 2 g
  LIVER: 9 g
  ALP: 1125 IU/L
  ALT: 35 IU/L
  AST: 71 IU/L
  CRE: 0.4 mg/dL
  DBIL: 0.076 mg/dL
  GLC: 200.6 mg/dL
  IP: 10.6 mg/dL
  K: 3.9 meq/L
  LDH: 155.4 IU/L
  Na: 141.4 meq/L
  PL: 132.2 mg/dL
  RALB: 3.3 g/dL
  TBIL: 0.1 mg/dL
  TC: 70.2 mg/dL
  TP: 5.5 g/dL
  gamma-GTP: 0.8 IU/L
100 mg/kg, 6 h, dose level Low
  TERMINAL_BW: 209.6 g
  APTT: 18.1 s
  Bas: 0.4%
  Eos: 1%
  Fbg: 231.6 mg/dL
  Hb: 13.4 g/dL
  Ht: 37.9%
  Lym: 76%
  MCH: 20.8 pg
  MCHC: 35.3%
  MCV: 58.9 fL
  Mono: 2.8%
  Neu: 19.2%
  PT: 12.3 s
  Plat: 130.4 x10_4/uL
  RBC: 643.6 x10_4/ul
  Ret: 7.9%
  WBC: 75.4 x10_2/uL
  KIDNEY_L: 0.9 g
  KIDNEY_R: 0.9 g
  KIDNEY_TOTAL: 1.8 g
  LIVER: 8.7 g
  ALP: 940.2 IU/L
  ALT: 31.6 IU/L
  AST: 68.4 IU/L
  CRE: 0.4 mg/dL
  DBIL: 0.08 mg/dL
  GLC: 189 mg/dL
  IP: 10.1 mg/dL
  K: 3.9 meq/L
  LDH: 212 IU/L
  Na: 141.4 meq/L
  PL: 137.2 mg/dL
  RALB: 3.4 g/dL
  TBIL: 0.1 mg/dL
  TC: 77.8 mg/dL
  TP: 5.5 g/dL
  gamma-GTP: 0.8 IU/L
100 mg/kg, 9 h, dose level Low
  TERMINAL_BW: 208 g
  APTT: 17.3 s
  Bas: 0.2%
  Eos: 0.6%
  Fbg: 226.6 mg/dL
  Hb: 13.3 g/dL
  Ht: 37.5%
  Lym: 74.6%
  MCH: 21.4 pg
  MCHC: 35.4%
  MCV: 60.5 fL
  Mono: 2.8%
  Neu: 20.6%
  PT: 12.7 s
  Plat: 123.9 x10_4/uL
  RBC: 621.6 x10_4/ul
  Ret: 7.5%
  WBC: 81 x10_2/uL
  KIDNEY_L: 0.9 g
  KIDNEY_R: 0.9 g
  KIDNEY_TOTAL: 1.9 g
  LIVER: 8.3 g
  ALP: 955 IU/L
  ALT: 29.6 IU/L
  AST: 69.8 IU/L
  CRE: 0.4 mg/dL
  DBIL: 0.082 mg/dL
  GLC: 199.8 mg/dL
  IP: 10 mg/dL
  K: 3.8 meq/L
  LDH: 151.2 IU/L
  Na: 142.6 meq/L
  PL: 141.6 mg/dL
  RALB: 3.4 g/dL
  TBIL: 0.1 mg/dL
  TC: 77.6 mg/dL
  TP: 5.4 g/dL
  gamma-GTP: 1.4 IU/L
[5]
  TERMINAL_BW: 219.8 g
  APTT: 21.2 s
  Bas: 1%
  Eos: 1%
  Fbg: 222 mg/dL
  Hb: 13.6 g/dL
  Ht: 38.3%
  Lym: 77.8%
  MCH: 21.7 pg
  MCHC: 35.5%
  MCV: 61.3 fL
  Mono: 2.8%
  Neu: 16.8%
  PT: 12 s
  Plat: 124.9 x10_4/uL
  RBC: 624.4 x10_4/ul
  Ret: 6.3%
  WBC: 116 x10_2/uL
  KIDNEY_L: 1 g
  KIDNEY_R: 1 g
  KIDNEY_TOTAL: 2 g
  LIVER: 10.1 g
  ALP: 1052.4 IU/L
  ALT: 37.8 IU/L
  AST: 70.2 IU/L
  CRE: 0.4 mg/dL
  DBIL: 0.072 mg/dL
  GLC: 188.6 mg/dL
  IP: 8.1 mg/dL
  K: 4.1 meq/L
  LDH: 141.4 IU/L
  Na: 141.6 meq/L
  PL: 136.4 mg/dL
  RALB: 3.4 g/dL
  TBIL: 0.1 mg/dL
  TC: 72.2 mg/dL
  TP: 5.5 g/dL
  gamma-GTP: 1 IU/L
